How the values were obtained:
[1] = system: female rats; test: 7-day i.p. repeat dose screening toxicity study; format: in vivo, rat; details: rats, 50 mg/kg/day i.p. for 7 consecutive days
Description: The compound of Formula (Ia) was evaluated in a 7-day repeat dose screening toxicity study in female rats. In order to maximize systemic exposure, rats were administered compound of Formula (Ia) i.p. at 50 mg/kg/day for 7 consecutive days, to obtain the results shown in FIG. 6. Clinical chemistry parameters were evaluated on Days 3 and 8. Histopathology was performed on select organs including the liver, kidney, spleen, and lung.

[2] = system: serum biomarkers of hepatotoxicity; test: Hepatotoxicity serum biomarker study in dogs, oral dose; format: in vivo, dog; details: for ALT level elevation: single PO dose of 50 mg/kg
Description: The compound of Formula (Ia) was orally dosed to […] at dose levels of 5, 15 or 50 mg/kg using 30% Sulfobutylether β-cyclodextrin as the vehicle for assessment of safety as measured via serum chemistry biomarkers of hepatotoxicity or bile duct injury FIG. 5A, showing measurements of alanine aminotranferease [ALT], aspartate aminotranferease [AST], alkaline phosphatase [ALP] and gamma-glutamyl transferase [GGT] in the dogs at each dose level (each bar represents a measurement from 1 dog in the study). […] For example, the ALT levels were elevated up to about 60-fold in male dogs and up to about 130-fold in female beagle dogs following a single PO dose of 50 mg/kg.

[3] = system: formalin-induced pain behavior; test: Formalin-induced pain behavior in vivo rodent model; parameters: species or system rat; details: i.p. administration, in words
Description: The data shown in Tables 3a, 3b, and 3c and FIG. 2 were obtained by administering a pharmaceutical composition comprising the compound of Formula (Ia) to rodents in the formalin-induced pain duration at various doses according to Example 5. Specifically, the data in Tables 3a, 3b, and 3c and FIG. 2 were obtained by intraperitoneal (i.p.) administration of compositions containing different concentrations of the compound of Formula (Ia), a comparator composition containing recited amounts of the comparator compound (e.g., 150 mg/kg of the comparator compound of Formula (II) in Table 3a) and a control composition containing the vehicle (e.g., without the compound of Formula (Ia) or a comparator compound).
The compound of Formula (Ia) and the comparator compounds of Formula (II) and Formula (III) were tested in the formalin-induced pain test reported by Dubuisson et al., Pain 1977 December; 4(2):161-74 (incorporated herein by reference in its entirety). Dubuisson et al. (1977) describe a method for assessing pain and analgesia in rats and cats. Briefly, dilute formalin (50 μL of 3% formalin) is injected into the plantar surface of the hind paw. […] The individual responsible for counting the pain behaviors in a particular study is blinded to the treatment groups.
Rats were treated with the HCl salt of Compound (Ia) at various doses (3, 10, 30, and 50 mg/kg, IP) or with the vehicle (IP).

[4] = target: hTRPA1 (Homo sapiens, UniProt O75762); test: Whole-cell patch clamp inhibition of hTRPA1; format: cell-based; details: same procedure as Example 3; species not given; read-out: IC50 in Patch Clamp Assay, TRPA1
Sequence of hTRPA1 (O75762 whole entry): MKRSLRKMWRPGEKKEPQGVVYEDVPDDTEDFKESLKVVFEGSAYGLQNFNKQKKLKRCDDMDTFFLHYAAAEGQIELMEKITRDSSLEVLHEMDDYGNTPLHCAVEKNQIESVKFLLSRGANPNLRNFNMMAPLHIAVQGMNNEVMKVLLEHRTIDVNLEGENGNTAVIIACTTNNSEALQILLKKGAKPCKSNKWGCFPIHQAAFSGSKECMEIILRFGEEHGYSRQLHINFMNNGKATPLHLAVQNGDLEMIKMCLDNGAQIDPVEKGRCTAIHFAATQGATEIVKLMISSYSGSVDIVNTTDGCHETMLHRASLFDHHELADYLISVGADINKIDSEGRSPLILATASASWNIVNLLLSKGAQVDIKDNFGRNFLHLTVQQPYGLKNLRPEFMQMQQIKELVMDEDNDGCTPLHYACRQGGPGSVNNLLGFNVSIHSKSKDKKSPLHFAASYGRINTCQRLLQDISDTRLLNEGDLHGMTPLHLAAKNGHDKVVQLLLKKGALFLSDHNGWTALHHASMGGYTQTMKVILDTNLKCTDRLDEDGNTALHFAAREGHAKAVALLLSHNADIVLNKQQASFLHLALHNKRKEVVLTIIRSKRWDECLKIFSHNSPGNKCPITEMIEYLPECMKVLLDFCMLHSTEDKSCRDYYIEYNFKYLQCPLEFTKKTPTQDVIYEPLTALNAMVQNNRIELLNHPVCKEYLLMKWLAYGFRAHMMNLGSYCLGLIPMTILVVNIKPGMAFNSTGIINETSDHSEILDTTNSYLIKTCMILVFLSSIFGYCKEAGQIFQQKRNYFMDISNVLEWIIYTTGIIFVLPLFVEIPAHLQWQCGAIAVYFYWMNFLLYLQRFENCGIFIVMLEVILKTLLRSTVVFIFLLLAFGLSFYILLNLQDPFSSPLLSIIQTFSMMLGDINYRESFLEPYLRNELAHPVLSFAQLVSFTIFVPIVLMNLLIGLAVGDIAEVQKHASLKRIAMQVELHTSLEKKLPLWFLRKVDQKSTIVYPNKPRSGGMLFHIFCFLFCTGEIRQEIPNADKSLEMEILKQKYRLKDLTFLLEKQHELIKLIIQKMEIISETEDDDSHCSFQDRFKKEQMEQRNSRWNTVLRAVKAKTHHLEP
Description: (§1) Data for TRPA1 inhibition and the selectivity of TRPA1 inhibition was obtained by this method for the compound of Formula (Ia) and included in Table 1 and Table 2. All currents were recorded in whole-cell configuration using EPC-9 and EPC-10 amplifiers and Patchmaster software (HEKA). […] The standard pipette solution consisted of 140 mM CsAsp, 10 mM EGTA, 10 mM HEPES, 2.27 mM MgCl2, 1.91 mM CaCl2, 4 mM MgATP, and 0.1-0.3 mM Na2GTP, with pH adjusted to 7.2 with CsOH. In addition, a solution containing 145 mM CsCl, 10 mM HEPES, 10 mM EGTA and 1 mM MgCl2 (pH 7.2 adjusted with CsOH) can be used. The standard bath solution contained 150 mM NaCl, 10 mM HEPES, 10 mM glucose, 4.5 mM KCl, 1 mM EGTA, 3 mM MgCl2, with pH adjusted to 7.4 with NaOH. In some instances, 2 mM CaCl2 was added in place of EGTA and the concentration of MgCl2 was reduced to 1 mM.
(§2) Data were collected either by continuous recordings at −60 mV or by applying voltage ramps from a holding potential of 0 mV every 4 s. […] Inward and outward currents were analyzed from the ramps at −80 and 80 mV, respectively. […]
(§3) Solutions were switched using a gravity-fed continuous focal perfusion system. […] Temperatures were confirmed using a thermistor (Warner Instruments, TA-29), with temperatures at the recorded cell estimated to be within +/−2° C. of those reported. […]

[5] = target: T1, hTRPV3 (Homo sapiens, UniProt Q8NET8); test: Patch clamp selectivity, hTRPV3; format: cell-based; details: same procedure as Example 3; species not given; read-out: IC50 in Patch Clamp Assay, TrpV3
T1 sequence (Q8NET8 1-790): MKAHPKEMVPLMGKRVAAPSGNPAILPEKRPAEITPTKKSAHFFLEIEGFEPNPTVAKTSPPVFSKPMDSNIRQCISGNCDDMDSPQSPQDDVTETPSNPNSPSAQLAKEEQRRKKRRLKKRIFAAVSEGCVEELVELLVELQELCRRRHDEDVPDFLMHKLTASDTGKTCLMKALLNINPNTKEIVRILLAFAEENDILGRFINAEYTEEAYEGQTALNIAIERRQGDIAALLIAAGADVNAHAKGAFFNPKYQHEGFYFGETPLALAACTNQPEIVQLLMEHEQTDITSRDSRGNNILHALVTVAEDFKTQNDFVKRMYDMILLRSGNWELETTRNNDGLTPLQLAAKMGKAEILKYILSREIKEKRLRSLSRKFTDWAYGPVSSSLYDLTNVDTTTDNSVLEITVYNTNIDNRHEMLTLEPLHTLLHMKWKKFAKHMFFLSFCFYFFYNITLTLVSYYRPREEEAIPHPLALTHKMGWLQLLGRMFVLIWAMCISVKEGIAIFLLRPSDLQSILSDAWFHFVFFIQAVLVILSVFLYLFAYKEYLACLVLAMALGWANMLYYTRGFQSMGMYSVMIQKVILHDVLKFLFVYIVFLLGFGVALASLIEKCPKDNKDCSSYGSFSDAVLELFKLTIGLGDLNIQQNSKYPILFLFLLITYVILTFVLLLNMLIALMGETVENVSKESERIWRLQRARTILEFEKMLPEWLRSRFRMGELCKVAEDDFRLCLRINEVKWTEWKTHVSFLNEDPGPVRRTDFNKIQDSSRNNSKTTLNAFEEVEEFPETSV
Description: as §1, §2, §3

[6] = target: hERG (Homo sapiens, UniProt Q12809); test: Patch clamp selectivity, hERG; format: cell-based; details: same procedure as Example 3
Sequence of hERG (Q12809 whole entry): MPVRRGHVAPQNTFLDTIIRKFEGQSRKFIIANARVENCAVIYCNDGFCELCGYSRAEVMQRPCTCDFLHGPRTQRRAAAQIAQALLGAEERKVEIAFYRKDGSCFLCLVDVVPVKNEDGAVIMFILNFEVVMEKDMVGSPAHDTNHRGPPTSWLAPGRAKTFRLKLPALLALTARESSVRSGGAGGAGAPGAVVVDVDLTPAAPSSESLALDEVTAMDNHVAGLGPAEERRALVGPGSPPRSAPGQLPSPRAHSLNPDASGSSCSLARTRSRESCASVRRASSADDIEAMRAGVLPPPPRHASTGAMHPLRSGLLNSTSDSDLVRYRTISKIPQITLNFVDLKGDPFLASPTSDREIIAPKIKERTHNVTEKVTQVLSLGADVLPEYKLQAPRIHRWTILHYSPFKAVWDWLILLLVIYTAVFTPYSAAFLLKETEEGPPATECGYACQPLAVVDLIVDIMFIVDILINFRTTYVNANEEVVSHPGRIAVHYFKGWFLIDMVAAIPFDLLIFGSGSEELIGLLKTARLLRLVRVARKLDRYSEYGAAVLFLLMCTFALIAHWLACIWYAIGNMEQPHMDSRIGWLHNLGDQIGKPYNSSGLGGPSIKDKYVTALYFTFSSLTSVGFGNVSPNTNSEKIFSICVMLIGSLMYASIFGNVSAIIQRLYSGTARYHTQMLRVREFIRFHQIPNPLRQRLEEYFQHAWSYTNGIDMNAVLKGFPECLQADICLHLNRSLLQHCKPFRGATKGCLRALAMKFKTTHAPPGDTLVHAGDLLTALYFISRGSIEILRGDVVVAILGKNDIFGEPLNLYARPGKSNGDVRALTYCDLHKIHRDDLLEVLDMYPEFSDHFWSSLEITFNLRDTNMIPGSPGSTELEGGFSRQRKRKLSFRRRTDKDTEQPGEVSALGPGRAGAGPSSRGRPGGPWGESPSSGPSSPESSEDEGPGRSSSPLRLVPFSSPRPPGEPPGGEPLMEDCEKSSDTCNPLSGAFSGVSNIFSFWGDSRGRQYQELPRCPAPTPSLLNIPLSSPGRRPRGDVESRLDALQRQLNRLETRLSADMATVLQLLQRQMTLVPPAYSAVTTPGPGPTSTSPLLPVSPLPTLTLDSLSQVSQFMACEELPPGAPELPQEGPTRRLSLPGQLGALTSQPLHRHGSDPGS
Description: as §1, §2, §3

[7] = target: hNav1.2 (Homo sapiens, UniProt Q99250); test: Patch clamp selectivity, hNav1.2; format: cell-based; details: same procedure as Example 3; species not given; read-out: IC50 in Patch Clamp Assay, NaV1.2
Sequence of hNav1.2 (Q99250 whole entry): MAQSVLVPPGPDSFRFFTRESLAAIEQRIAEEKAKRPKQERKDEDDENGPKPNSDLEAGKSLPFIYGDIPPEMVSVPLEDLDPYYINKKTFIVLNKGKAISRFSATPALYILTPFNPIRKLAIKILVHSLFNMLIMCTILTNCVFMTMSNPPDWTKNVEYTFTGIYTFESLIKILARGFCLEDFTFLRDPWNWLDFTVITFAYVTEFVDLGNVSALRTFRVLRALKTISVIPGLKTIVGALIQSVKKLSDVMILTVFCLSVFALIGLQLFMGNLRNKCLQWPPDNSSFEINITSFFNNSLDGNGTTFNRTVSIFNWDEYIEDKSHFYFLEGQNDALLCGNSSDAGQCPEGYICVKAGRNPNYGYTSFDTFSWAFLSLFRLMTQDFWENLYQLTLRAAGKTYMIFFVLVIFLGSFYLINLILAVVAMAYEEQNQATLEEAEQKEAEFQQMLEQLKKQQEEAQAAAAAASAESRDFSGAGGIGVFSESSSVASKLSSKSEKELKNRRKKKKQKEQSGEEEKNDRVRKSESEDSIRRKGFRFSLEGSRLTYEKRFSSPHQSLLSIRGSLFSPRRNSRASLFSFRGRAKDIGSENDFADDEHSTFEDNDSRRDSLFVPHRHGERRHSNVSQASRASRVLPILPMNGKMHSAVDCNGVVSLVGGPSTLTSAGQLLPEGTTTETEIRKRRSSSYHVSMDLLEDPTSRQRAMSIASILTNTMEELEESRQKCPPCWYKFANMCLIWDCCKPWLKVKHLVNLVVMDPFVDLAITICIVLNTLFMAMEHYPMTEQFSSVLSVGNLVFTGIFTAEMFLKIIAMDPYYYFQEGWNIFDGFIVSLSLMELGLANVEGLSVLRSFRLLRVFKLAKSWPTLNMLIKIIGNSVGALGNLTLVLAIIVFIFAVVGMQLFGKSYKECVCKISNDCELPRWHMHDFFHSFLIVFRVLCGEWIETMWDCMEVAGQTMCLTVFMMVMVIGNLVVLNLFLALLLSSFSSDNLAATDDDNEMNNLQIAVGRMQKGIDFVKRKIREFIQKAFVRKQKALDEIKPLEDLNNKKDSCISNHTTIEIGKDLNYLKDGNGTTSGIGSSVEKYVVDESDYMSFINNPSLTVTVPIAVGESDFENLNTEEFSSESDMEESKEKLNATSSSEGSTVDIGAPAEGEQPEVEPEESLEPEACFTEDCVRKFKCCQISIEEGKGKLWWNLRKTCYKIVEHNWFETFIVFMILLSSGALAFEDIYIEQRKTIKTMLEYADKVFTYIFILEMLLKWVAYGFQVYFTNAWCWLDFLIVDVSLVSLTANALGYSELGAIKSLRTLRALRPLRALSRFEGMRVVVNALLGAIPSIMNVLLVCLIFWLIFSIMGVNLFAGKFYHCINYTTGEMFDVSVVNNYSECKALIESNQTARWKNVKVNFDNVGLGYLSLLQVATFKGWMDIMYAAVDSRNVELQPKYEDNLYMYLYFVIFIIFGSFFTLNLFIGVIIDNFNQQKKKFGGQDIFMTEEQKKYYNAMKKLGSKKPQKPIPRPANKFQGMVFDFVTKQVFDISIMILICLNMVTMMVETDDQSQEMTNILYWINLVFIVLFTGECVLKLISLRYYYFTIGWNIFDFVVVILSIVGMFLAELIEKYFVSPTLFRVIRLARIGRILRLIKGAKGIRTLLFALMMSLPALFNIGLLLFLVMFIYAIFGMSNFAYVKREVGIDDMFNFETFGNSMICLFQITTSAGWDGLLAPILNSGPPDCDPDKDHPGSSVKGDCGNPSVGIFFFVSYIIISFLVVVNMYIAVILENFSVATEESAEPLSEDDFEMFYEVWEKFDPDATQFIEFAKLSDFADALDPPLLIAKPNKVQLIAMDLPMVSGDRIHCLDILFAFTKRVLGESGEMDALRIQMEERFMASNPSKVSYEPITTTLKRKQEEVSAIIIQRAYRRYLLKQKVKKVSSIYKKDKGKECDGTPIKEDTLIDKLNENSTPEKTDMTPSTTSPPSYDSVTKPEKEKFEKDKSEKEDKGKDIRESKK
Description: as §1, §2, §3

| IC50 [4] [µM] | IC50 [5] [µM] | IC50 [7] [µM] | SMILES | serum biomarkers of hepatotoxicity [1] | serum biomarkers of hepatotoxicity (ALT, AST, ALP, GGT) ([2]; dogs, 50 mg/kg PO) | ALT level elevation ([2]; female beagle dogs) | ALT level elevation ([2]; male dogs) | duration of pain behavior compared with vehicle [3] | IC50 [6] [µM] |
| --- | --- | --- | --- | --- | --- | --- | --- | --- | --- |
|  |  |  | C[C@H]1CCCN1c1ccc(-c2csc(NC(=O)Cn3cnc4c3c(=O)n(C)c(=O)n4C)n2)cc1F [Formula (III)] | did elevate serum biomarkers of hepatotoxicity | did elevate serum biomarkers of hepatotoxicity | up to 130 fold | up to 60 fold | shorter durations of pain behavior than those treated with the vehicle |  |
| 9.8 | > 10 | > 20 | C[C@H]1CCCN1c1ncc(-c2cccc(NC(=O)Cn3cnc4[nH]c(=O)n(C)c(=O)c43)n2)cn1 [Formula (IV), reference compound] |  |  |  |  |  | > 20 |
|  |  |  | CC(C)c1ccc(NC(=O)Cn2cnc3c2c(=O)n(C)c(=O)n3C)cc1 [Formula (II)] |  |  |  |  | shorter durations of pain behavior than those treated with the vehicle |  |

Reference: patent publication US9193729B2, “Inhibiting transient receptor potential ion channel TRPA1” (Cubist Pharmaceuticals, Inc., priority 2011, dated 2015)
